In patent US7692014B2, “Inhibitors of the HIV integrase enzyme” (Pfizer, Inc., priority 2004, dated 2010):

target: T1, Full-length wild type HIV-1 integrase (SF1) (Human immunodeficiency virus type 1 group M subtype B, UniProt P04585); assay: Integrase strand-transfer scintillation proximity assay; format: biochemical; details: IC50, integrase strand-transfer SPA
T1 construct: made in house; host or cells: E. coli BL21 (DE3), pET24a vector
Text: Integrase Strand-Transfer Scintillation Proximity Assay Oligonucleotides
The annealed product represents preprocessed viral ds-DNA derived from the LTR U5 sequence of the viral genome. A ds-DNA control to test for non-specific interactions was made using a 3′ di-deoxy derivative of oligonucleotide #1 annealed to oligonucleotide #2. The CA overhang at the 5′ end of the non-biotinylated strand of the ds-DNA was created artificially by using a complimentary DNA oligonucleotide shortened by 2 base pairs. This configuration eliminates the requisite 3′ processing step of the integrase enzyme prior to the strand-transfer mechanism.
Host ds-DNA was prepared as an unlabeled and [^3H]-thymidine labeled product from annealed oligonucleotide #3—5-[…]-3′ (SEQ ID NO: 3), and oligonucleotide #4—5′-[…]-3′ (SEQ ID NO: 4), both synthesized by TriLink BioTechnologies, Inc. (San Diego, Calif.). The annealed product had overhanging 3′ ends of poly(dA). […] The radiolabeled product was purified using a NENSORB cartridge and stored in stabilized aqueous solution (PerkinElmer).
Reagents: Streptavidin-coated polyvinyltoluene (PVT) SPA beads were purchased from Amersham Biosciences (Piscataway, N.J.). Cesium chloride was purchased from Shelton Scientific, Inc. (Shelton, Conn.). White, polystyrene, flat-bottom, non-binding surface, 96-well plates were purchased from Corning. All other buffer components were purchased from Sigma (St. Louis, Mo.) unless otherwise indicated. Enzyme Construction: Full-length wild type HIV-1 integrase (SF1) sequence (amino acids 1-288) was constructed in a pET24a vector (Novagen, Madison, Wis.). […] Enzyme Purification: Full length wild-type HIV Integrase was expressed in E.coli BL21 (DE3) cells and induced with 1 mM isopropyl-1 thio-β-D-galactopyranoside (IPTG) when cells reached an optical density between 0.8-1.0 at 600 nm. Cells were lysed by microfluidation in 50 mM HEPES pH 7.0, 75 mM NaCl, 5 mM DTT, 1 mM 4-(2-Aminoethyl)benzenesulfonylfluoride HCl (AEBSF). Lysate was then centrifuged 20 minutes at 11 k rpm in GSA rotor in Sorvall RC-5B at 4° C. Supernant was discarded and pellet resuspended in 50 mM HEPES pH 7.0, 750 mM NaCl, 5 mM DTT, 1 mM AEBSF and homogenized in a 40 mL Dounce homogenizer for 20 minutes on ice. Homogenate was then centrifuged 20 minutes at 11 k rpm in SS34 rotor in Sorvall RC-5B at 4° C. Supernant was discarded and pellet resuspended in 50 mM HEPES pH 7.0, 750 mM NaCl, 25 mM CHAPS, 5 mM DTT, 1 mM AEBSF. Preparation was then centrifuged 20 minutes at 11 k rpm in SS34 rotor in Sorvall RC-5B at 4° C.
Supernant was then diluted 1:1 with 50 mM HEPES pH 7.0, 25 mM CHAPS, 1 mM DTT, 1 mM AEBSF and loaded onto a Q-Sepharose column pre-equilibrated with 50 mM HEPES, pH 7.0, 375 mM NaCl, 25 mM CHAPS, 1 mM DTT, 1 mM AEBSF. The flow through peak was collected and NaCl diluted to 0.1 M with 50 mM HEPES pH 7.0, 25 mM CHAPS, 1 mM DTT, 0.5 mM AEBSF and loaded onto a SP-Sepharose column pre-equilibrated with 50 mM HEPES pH 7.0, 100 mM NaCl, 25 mM CHAPS, 1 mM DTT, 0.5 mM AEBSF. After washing the column with the equilibration buffer, a 100 to 400 mM NaCl gradient was run. The eluted integrase was concentrated and run on a S-300 gel diffusion column using 50 mM HEPES pH 7.0, 500 mM NaCl, 25 mM CHAPS, 1 mM DTT, 0.5 mM AEBSF. […] All columns were run in a 4° C. cold room.
Viral DNA Bead Preparation: Streptavidin-coated SPA beads were suspended to 20 mg/mL in 25 mM 3-morpholinopropanesulfonic acid (MOPS) (pH 7.2) and 1.0% NaN3.

Row | SMILES | IC50
1 | CN(Cc1ccccc1)Cc1cn(Cc2ccc(F)cc2)c2cnc3c(=O)n(O)ccc3c12 [Example 54, 1-{[benzyl(methyl)amino]methyl}-3-(4-fluorobenzyl)-7-hydroxy-3,7-dihydro-6H-pyrrolo[2,3-c]-1,7-naphthyridin-6-one] | 13.5 nM

same assay, conditions: integrase strand-transfer SPA; read-out: IC50

Row | SMILES | IC50
2 | O=c1c2ncc3c(ccn3Cc3ccc(F)cc3)c2ccn1O [Example 1, 3-(4-Fluorobenzyl)-7-hydroxy-3,7-dihydro-6H-pyrrolo[2,3-c]-1,7-naphthyridin-6-one] | 20 nM
3 | O=c1c2ncc3c(c(COCCc4ccccn4)cn3Cc3ccc(F)cc3)c2ccn1O [Example 33, 3-(4-fluorobenzyl)-7-hydroxy-1-[(2-pyridin-2-ylethoxy)methyl]-3,7-dihydro-6H-pyrrolo[2,3-c]-1,7-naphthyridin-6-one] | 26 nM
4 | O=c1c2ncc3c(c(CN4CCC(O)CC4)cn3Cc3ccc(F)cc3)c2ccn1O [Example 53, 3-(4-fluorobenzyl)-7-hydroxy-1-[(4-hydroxypiperidin-1-yl)methyl]-3,7-dihydro-6H-pyrrolo[2,3-c]-1,7-naphthyridin-6-one] | 7 nM
5 | CCCCc1cc2c(ncc3c2ccn3Cc2ccc(F)cc2)c(=O)n1O [Example 46, 8-butyl-3-(4-fluorobenzyl)-7-hydroxy-3,7-dihydro-6H-pyrrolo[2,3-c]-1,7-naphthyridin-6-one] | 49 nM
6 | O=c1c2ncc3c(c(CN4CCN(CCN5CCOCC5)CC4)cn3Cc3ccc(F)cc3)c2ccn1O [Example 58, 3-(4-fluorobenzyl)-7-hydroxy-1-{[4-(2-morpholin-4-ylethyl)piperazin-1-yl]methyl}-3,7-dihydro-6H-pyrrolo[2,3-c]-1,7-naphthyridin-6-one] | 22 nM
7 | CN(Cc1cnn(-c2ccccc2)c1)Cc1cn(Cc2ccc(F)cc2)c2cnc3c(=O)n(O)ccc3c12 [Example 59, 3-(4-fluorobenzyl)-7-hydroxy-1-({methyl[(1-phenyl-1H-pyrazol-4-yl)methyl]amino}methyl)-3,7-dihydro-6H-pyrrolo[2,3-c]-1,7-naphthyridin-6-one] | 19 nM
8 | Cc1cc2c(ncc3c2ccn3Cc2ccc(F)cc2)c(=O)n1O [Example 47, 3-(4-fluorobenzyl)-7-hydroxy-8-methyl-3,7-dihydro-6H-pyrrolo[2,3-c]-1,7-naphthyridin-6-one] | 11 nM
9 | CCS(=O)(=O)N1CCN(Cc2cn(Cc3ccc(F)cc3)c3cnc4c(=O)n(O)ccc4c23)CC1 [Example 52, 1-{[4-(ethylsulfonyl)piperazin-1-yl]methyl}-3-(4-fluorobenzyl)-7-hydroxy-3,7-dihydro-6H-pyrrolo[2,3-c]-1,7-naphthyridin-6-one] | 10.5 nM
10 | O=C(NCc1ccccn1)c1cn(Cc2ccc(F)cc2)c2cnc3c(=O)n(O)ccc3c12 [Example 29, 3-(4-fluorobenzyl)-7-hydroxy-6-oxo-N-(pyridin-2-ylmethyl)-6,7-dihydro-3H-pyrrolo[2,3-c]-1,7-naphthyridine-1-carboxamide] | 12 nM
11 | O=c1c2ncc3c(c(COC4CCOCC4)cn3Cc3ccc(F)cc3)c2ccn1O [Example 37, 3-(4-fluorobenzyl)-7-hydroxy-1-[(tetrahydro-2H-pyran-4-yloxy)methyl]-3,7-dihydro-6H-pyrrolo[2,3-c]-1,7-naphthyridin-6-one] | 23 nM
12 | O=c1c2ncc3c(c(COC[C@@H](O)CO)cn3Cc3ccc(F)cc3)c2ccn1O [Example 31, 1-({[(2S)-2,3-dihydroxypropyl]oxy}methyl)-3-(4-fluorobenzyl)-7-hydroxy-3,7-dihydro-6H-pyrrolo(2,3-c]-1,7-naphthyridin-6-one] | 9 nM
13 | CCCN(CCO)Cc1cn(Cc2ccc(F)cc2)c2cnc3c(=O)n(O)ccc3c12 [Example 48, 3-(4-fluorobenzyl)-7-hydroxy-1-{[(2-hydroxyethyl)(propyl)amino]methyl}-3,7-dihydro-6H-pyrrolo[2,3-c]-1,7-naphthyridin-6-one] | 11 nM
14 | O=C1c2ncc3c(ccn3Cc3ccc(F)cc3)c2CCN1O [Example 2, 3-(4-Fluorobenzyl)-7-hydroxy-3,7,8,9-tetrahydro-6H-pyrrolo[2,3-c]-1,7-naphthyridin-6-one] | 30 nM
15 | O=c1c2ncc3c(c(S(=O)(=O)NCc4ccc(F)cc4)cn3Cc3ccc(F)cc3)c2ccn1O [Example 25, N,3-bis(4-fluorobenzyl)-7-hydroxy-6-axo-6,7-dihydro-3H-pyrrolo[2,3-c]-1,7-naphthyridine-1-sulfonamide] | 35 nM
16 | CN(C)S(=O)(=O)c1cn(Cc2ccc(F)cc2)c2cnc3c(=O)n(O)ccc3c12 [Example 23, 3-(4-fluorobenzyl)-7-hydroxy-N,N-dimethyl-6-oxo-6,7-dihydro-3H-pyrrolo[2,3-c]-1-naphthyridine-1-sulfonamide] | 10 nM
17 | COCCOCc1cn(Cc2ccc(F)cc2)c2cnc3c(=O)n(O)ccc3c12 [Example 36, 3-(4-fluorobenzyl)-7-hydroxy-1-[(2-methoxyethoxy)methyl]-3,7-dihydro-6H-pyrrolo[2,3-c]-1,7-naphthyridin-6-one] | 20 nM
18 | O=c1c2ncc3c(c(S(=O)(=O)NCC(F)(F)F)cn3Cc3ccc(F)cc3)c2ccn1O [Example 24, 3-(4-fluorobenzyl)-7-hydroxy-6-oxo-N-(2,2,2-trifluoroethyl)-6,7-dihydro-3H-pyrrolo[2,3-c]-1,7-naphthyridine-1-sulfonamide] | 5 nM
19 | CC(=O)N1CCN(C(=O)c2cn(Cc3ccc(F)cc3)c3cnc4c(=O)n(O)ccc4c23)CC1 [Example 27, 1-[(4-acetylpiperazin-1-yl)carbonyl]-3-(4-fluorobenzyl)-7-hydroxy-3,7-dihydro-6H-pyrrolo[2,3-c]-1,7-naphthyridin-6-one] | 13 nM
20 | O=C(c1cn(Cc2ccc(F)cc2)c2cnc3c(=O)n(O)ccc3c12)N1CCCC1 [Example 26, 3-(4-fluorobenzyl)-7-hydroxy-1-(pyrrolidin-1-ylcarbonyl)-3,7-dihydro-6H-pyrrolo[2,3-c]-1,7-naphthyridin-6-one] | 9 nM
21 | CC(C)(C)OC(=O)N1CCC(COCc2cn(Cc3ccc(F)cc3)c3cnc4c(=O)n(O)ccc4c23)CC1 [Example 32] | 108 nM
22 | O=c1c2ncc3c(c(CNC4(CO)CCCC4)cn3Cc3ccc(F)cc3)c2ccn1O [Example 39, 3-(4-fluorobenzyl)-7-hydroxy-1-({[1-(hydroxymethyl)cyclopentyl]amino)methyl)-3,7-dihydro-6H-pyrrolo[2,3-c]-1,7-naphthyridin-6-one] | 79 nM
23 | O=C1c2ncc3c(ccn3Cc3ccc(F)cc3)c2CCCN1O [Example 3, 3-(4-Fluorobenzyl)-7-hydroxy-7,8,9,10-tetrahydropyrrolo[3′,2′:4,5]pyrido[2,3-c]azepin-6(3H)-one] | 17 nM
24 | O=C1CCN(Cc2cn(Cc3ccc(F)cc3)c3cnc4c(=O)n(O)ccc4c23)CCN1 [Example 19, 3-(4-fluorobenzyl)-7-hydroxy-1-[(5-oxo-1,4-diazepan-1-yl)methyl]-3,7-dihydro-6H-pyrrolo[2,3-c]-1,7-naphthyridin-6-one] | 5 nM
25 | NC(=O)[C@@H]1CCCN1S(=O)(=O)c1cn(Cc2ccc(F)cc2)c2cnc3c(=O)n(O)ccc3c12 [Example 20, 1-{[3-(4-fluorobenzyl)-7-hydroxy-6-oxo-6,7-dihydro-3H-pyrrolo[2,3-c]-1,7-naphthyridin-1-yl]sulfonyl)-L-prolinamide] | 9 nM
